Data taken from patent publication US10434074B2, “Peptide and small molecule agonists of EPHA and uses thereof” (CASE WESTERN RESERVE UNIVERSITY, priority 2004, dated 2019).
“Also recorded” adds a separate entry of the source. Where no end group is shown, it is not given here.

Columns and labels:
EphA2 [1] = target: T1, EphA2 (Homo sapiens, UniProt P29317); test: EphA2 tyrosine phosphorylation (activation) in PC3 cells, immunoprecipitation and anti-phosphotyrosine blot; format: cell-based; design: We have previously identified EphA2 as the primary EphA kinase expressed in PC-3 cells; endogenous in cells; host or cells: PC-3 (PC3) and DU-145 cells; details: for EphA2 tyrosine phosphorylation: several different cell lines; for EphA2 activation (agonist function): PC-3 cells, PY99 blot
Description: FIG. 9 illustrates EP1 is an EphA2 Kinase Agonist. PC3 cells (1×10^6 cells/ml) were stimulated with different concentrations of EP1-Fc, GST-EP1, or ephrin-A1-Fc for 10 min. EphA2 was precipitated with anti-EphA2. The immune complex was blotted for PY to detect EphA2 activation (top panel), or for EphA2 to show equal loading (lower panel). Data represents one of three similar experimental results.
FIG. 15 illustrates Identification of EP1 residues critical for EphA2 activation. Four out of five EP1 residues that align with receptor-binding regions of ephrins are critical for EphA2 activation. Mutation to alanine was performed at the indicated positions (see letters in FIG. 15 for reference), and the resultant EP1-Fc mutants were used to stimulate PC3 cells for 10 min at […] for ability to activate EphA2.
PC-3 cells were stimulated with the indicated concentration of dobutamine. EphA2 was immunoprecipitated and tested for activation status by blotting with anti-phosphotyrosine (PY99).
Cells cultured in 6 well plates at 70-80% confluence were stimulated with 0.5 μg/ml Fc, 1 μg/ml epnrinA1-Fc or 20 ng/ml HGF/SF or their combinations as indicated. After stimulation, cells were lysed in RIPA buffer (20 mM Tris, pH7.4, 125 mM NaCl, 20 mM NaF, 0.1% SDS, 10% glycerol, 0.5% sodium deoxycholate, and 1% TX-100, 0.5 mM Na3VO4) containing protease inhibitors (1 mM phenylmethylsulphonyl fluoride, and 2 μg/ml each of aprotinin and leupeptin). Cell lysates were clarified by centrifugation at 13,000 rpm for 5 min. Immunoprecipitation was carried out by adding anti-EphA2 antibody to clarified cell lysates and incubated for 1 hour at 4° C. The immunocomplex was captured using γ-bind beads (Pharmacia). Cell lysates or precipitated proteins were separated on 4-20% Tris-glycine gels (Invitrogen) and transferred to Immobilon-P PVDF membranes (Millipore). […] For quantitative analysis, band densities were measured using KODAK 1D imagine analysis software (Eastman Kodak Company).

GFP-PC-3 cells = test: PC3 xenograft growth in nude mice; format: in vivo; design: s.c. tumor growth: dose or concentration left out as unconfirmed; details: for s.c. tumor growth: vs human IgG
From the text: Frozen sections were stained with biotinylated rabbit anti-human Fc, and HRP-conjugated streptoavidin.

[2] = test system: pRNS-1 prostate epithelial cells; test: Clonal growth, crystal violet staining; format: cell-based; details: 10 days
Description: About 80 pRNS-1 prostate epithelial cells were seeded into each well on 12-well dishes in the presence of indicated concentrations of ephrin-A1-Fc. Cells were cultured for 10 days. Clonal growth was visualized by crystal violet staining.

PC3 or pRNS-1 cells = test: 3H-thymidine incorporation; format: cell-based; details: overnight stimulation
Description: Subconfluent PC3 or pRNS-1 cells were stimulated with the indicated reagents overnight. Next day cells were labeled with ^3H-thymidine for 2 hours. ^3H-thymidine incorporation into isolated DNA synthesis was determined by scintillation counting.

PC3 cells = test: Cell rounding; format: cell-based, human; details: 10 min
Description: PC3 cells cultured on coverslips were stimulated with the indicated concentrations of ephrinA1-Fc, EP1-Fc of Fc for 10 min. Cells were then fixed and photographed.

EphA2 [3] = target: T1, EphA2; test: Precipitation of 125I-labeled PC3 cell proteins / Western blot (binding specificity); design: We have previously identified EphA2 as the primary EphA kinase expressed in PC-3 cells; endogenous in cells; host or cells: PC-3 (PC3); details: PC3 cell lysates
Description: FIGS. 8(A-B) illustrate Specific Binding of EP1-Fc to EphA2 Receptor. A: ^125I labeling of PC3 cells. PC3 cells (10×10^6) were labeled with 125I (0.5 mCi). Then, cell lysates were incubated with EP1-Fc fusion peptide, ephrin-A1-Fc (EA1-Fc), or human Fc as indicated. Equal amount of cell lysate was used in each experimental group. […] B: Western Blotting Analysis. PC3 cell lysates were incubated with EP1-Fc fusion protein, ephrin-A1 protein, or human Fc. The immune complexes were blotted with anti-EphA2. EP1 specifically precipitated EphA2.

EphA2 [4] = details: several breast cancer cell lines; cited from earlier work
[5] = target: EphA2 kinase ligand-binding domain (Homo sapiens, UniProt P29317); test: BIAcore binding to immobilized EphA2 ligand-binding domain; details: EphA2 LBD immobilized on sensor chip
Description: A) EphA2 activation by labetalol. […] The increasing concentrations of labetalol (0, […], 1.25 mM and 2.5 mM) were injected over EphA2 kinase ligand-binding domain immobilized on the sensor chip.
A) Doxazosin activates EphA2.

ERK1/2 = test: Inhibition of ERK1/2 (MAPK) in PC3 cells, anti-p-ERK1/2 blot; format: cell-based, human
From the text: FIG. 11 illustrates Activation of EphA2 downstream signaling by EP1-Fc. PC3 cells were stimulated with the indicated concentrations of ephrinA1-Fc or EP1-Fc fusion proteins and lysed in RIPA buffer. EphA2 activation status was examined by immunoprecipiting EphA2 and blotting for phosphotyrosine or EphA2 itself (top panel). Inhibition of ERK1/2, a downstream signaling event of EphA2 characterized in our lab, was examined by blotting total cell lysates with anti-p-ERK1/2.

[6] = test system: integrin-mediated cell adhesion; test: Integrin-mediated cell adhesion to fibronectin; format: cell-based

T1 sequence (P29317 24-976): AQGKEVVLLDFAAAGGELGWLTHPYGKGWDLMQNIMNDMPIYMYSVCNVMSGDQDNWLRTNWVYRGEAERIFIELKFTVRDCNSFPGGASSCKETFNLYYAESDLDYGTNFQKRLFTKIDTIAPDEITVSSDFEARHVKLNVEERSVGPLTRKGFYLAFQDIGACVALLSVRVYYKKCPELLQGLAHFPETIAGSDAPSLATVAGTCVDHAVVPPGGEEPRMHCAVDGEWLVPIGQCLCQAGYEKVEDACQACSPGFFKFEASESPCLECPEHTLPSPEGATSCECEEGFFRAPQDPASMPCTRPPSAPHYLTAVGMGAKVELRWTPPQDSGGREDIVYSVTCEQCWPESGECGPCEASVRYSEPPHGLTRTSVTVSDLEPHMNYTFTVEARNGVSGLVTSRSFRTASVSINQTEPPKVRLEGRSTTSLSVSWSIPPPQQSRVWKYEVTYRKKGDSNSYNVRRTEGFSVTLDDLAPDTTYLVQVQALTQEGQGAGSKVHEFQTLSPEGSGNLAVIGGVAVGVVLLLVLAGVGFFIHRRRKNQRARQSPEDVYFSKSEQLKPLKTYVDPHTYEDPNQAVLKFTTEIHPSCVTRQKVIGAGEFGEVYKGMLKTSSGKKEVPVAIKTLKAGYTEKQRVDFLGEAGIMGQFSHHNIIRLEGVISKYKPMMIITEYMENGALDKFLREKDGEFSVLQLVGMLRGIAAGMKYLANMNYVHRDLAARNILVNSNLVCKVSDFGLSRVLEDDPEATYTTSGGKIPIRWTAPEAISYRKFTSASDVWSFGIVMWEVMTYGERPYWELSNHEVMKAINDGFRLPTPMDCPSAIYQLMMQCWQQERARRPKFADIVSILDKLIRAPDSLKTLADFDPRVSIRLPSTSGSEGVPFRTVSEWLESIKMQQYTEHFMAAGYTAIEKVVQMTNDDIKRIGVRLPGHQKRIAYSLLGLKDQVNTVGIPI
EphA2 kinase ligand-binding domain, sequence (P29317 28-206 limits assumed): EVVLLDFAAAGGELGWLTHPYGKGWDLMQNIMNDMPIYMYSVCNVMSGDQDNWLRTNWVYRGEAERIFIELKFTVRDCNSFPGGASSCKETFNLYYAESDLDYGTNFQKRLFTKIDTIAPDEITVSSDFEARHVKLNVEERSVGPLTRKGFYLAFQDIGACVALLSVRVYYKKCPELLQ

Compound: GST-EP1: recombinant EP1 fused to GST (RRCVWSTNVYSMEPALFCAA; cysteine pairing not given here; also: fused to GST)
- EphA2 tyrosine phosphorylation (EphA2 [1]): induces dose-dependent EphA2 tyrosine phosphorylation

Compound: CC(CCc1ccc(O)cc1)NCCc1ccc(O)c(O)c1 (stereo not shown) [Dobutamine]
- EphA2 activation (agonist function) (EphA2 [1]): EphA2 agonists

Compound: EP1-Fc: recombinant EP1 fused to Fc, dimeric (RRCVWSTNVYSMEPALFCAA; not fully specified; cysteine pairing not given here; also: fused to Fc, dimeric)
- targeting to tumors (GFP-PC-3 cells; frozen sections stained with anti-human Fc): target to GFP-PC-3 tumors
- tumor growth after three weeks of treatment (GFP-PC-3 cells; i.p.): lack of effects after three weeks of treatment
- s.c. tumor growth (GFP-PC-3 cells; i.p.): moderate inhibitory effects on PC3 xenograft growth
- s.c. tumor growth (GFP-PC-3 cells; i.p., listed as Ep1-Fc): could have suppressive effect on the growth of prostate cancer xenograft
- EphA2 tyrosine phosphorylation (EphA2 [1]): induces dose-dependent EphA2 tyrosine phosphorylation
- clonal cell growth [2]: Inhibition of cell growth
- cell proliferation / growth (PC3 or pRNS-1 cells): Inhibition of cell proliferation
- cell morphology (rounding) (PC3 cells): adapt a round morphology; also recorded: induced PC3 cell rounding
- specificity of binding among cell surface proteins (EphA2 [3]): only bound to EphA2

Compound: N#CC(=C(/N)Sc1ccccc1N)/C(C#N)=C(/N)Sc1ccccc1N [U1026]
- EphA2 expression (EphA2 [4]): reduced EphA2 expression

Compound: CC(CCc1ccccc1)NCC(O)c1ccc(O)c(C(N)=O)c1 (stereo not shown) [Labetalol]
- EphA2 activation (agonist function) (EphA2 [1]): EphA2 agonists
- BIAcore binding to EphA2 [5]: binding curves for interaction of labetalol with EphA2 kinase

Compound: (di-meo-isoquinolin-1-ylmethyl)-et-di-meo-pyrido(2,1-a)isoquinolin, hydrobromide S120103
- EphA2 activation (agonist function) (EphA2 [1]): EphA2 agonistic compound

Compound: EphA2-binding peptide from X2CX14CX2 phage display library, SEQ ID NO: 1, RRCVWSTNVYSMEPA LFCAA (RRCVWSTNVYSMEPALFCAA) [EP1]
- EphA2 tyrosine phosphorylation (EphA2 [1]): binds to EphA2 without activating it
- mitogen-activated protein kinase (MAPK) (ERK1/2): inhibited mitogen-activated protein kinase
- integrin function and cell adhesion [6]: suppressed integrin function and causes reduced cell adhesion
- cell proliferation / growth (PC3 or pRNS-1 cells): inhibited cancer cell growth
- specificity of binding among cell surface proteins (EphA2 [3]): EphA2 was the only cell surface protein that was targeted by EP1

Compound: COc1cc2nc(N3CCN(C(=O)C4COc5ccccc5O4)CC3)nc(N)c2cc1OC (stereo not shown) [Doxazosin]
- EphA2 activation (agonist function) (EphA2 [1]): EphA2 agonists
- BIAcore binding to EphA2 [5]: direct binding
